Results: patent US20260001863A1, “NOVEL PYRIDAZINES” (Boehringer Ingelheim International GmbH, priority 2019, published 2026)

What was measured:
[1] = molecular target: Human ATX (Homo sapiens (Human), UniProt Q13822); assay: Assay A: Biochemical ATX Assay; settings: 5 nM recombinant ATX, 18:1 LPC substrate, 2 h at room temperature, formation of 18:1 LPA by RapidFire MS
Description: 5 nM recombinant ATX (Cayman Chemicals) was supplemented to 50 mM Tris buffer (pH 8.0) containing 3 mM KCl, 1 mM CaCl2, 1 mM MgCl2 0.14 mM NaCl, and 0.1% bovine serum albumin. Test compounds were dissolved in DMSO and tested in the range of 0.1 nM to 10 μM. The enzymatic reaction (22.5 μL) was started by addition of 2.5 μL 10 μM 18:1 LPC (Avanti Lipids, Alabaster, AL, USA). After 2-h incubation at room temperature, the reaction was stopped by addition of 20 μL water containing 500 nM 20:4 LPA as internal standard and 100 μL 1-butanol for extracting LPA. Subsequently, the plates were centrifuged at 4000 rpm, 4° C., for 2 min. The resultant upper butanol phase was directly used for injection at a RapidFire system (Agilent).
The RapidFire autosampler was coupled to a binary pump (Agilent 1290) and a Triple Quad 6500 (ABSciex, Toronto, Canada). […] 1 The MS was operated in negative mode with a source temperature of 550° C., curtain gas=35, gas 1=65, and gas 2=80. The following transitions and MS parameters (DP: declustering potential and CE: collision energy) for the respective LPAs were determined: • 18:1 LPA at 435.2/152.8, DP=−40, CE=−28 and 20:4 LPA at 457.2/152.8, DP=−100, CE=−27).
The formation of 18:1 LPA was monitored and evaluated as ratio to 20:4 LPA.

[2] = system: plasma LPA; assay: Assay C: In Vivo (plasma LPA reduction after oral dosing); settings: rats, oral 5 mg/kg, plasma 8 hours post application vs baseline; sum of LPA 16:0, 18:0, 18:1, 18:2, 20:4
Description: The test substance was solubilized in 0.5% natrosol supplemented with 0.015% Tween 80 for oral application to rats at a dose of 5 mg/kg. Blood samples were collected before compound administration and 8 hours post application on ice using EDTA as coagulation agent. Subsequently, plasma was prepared by centrifugation and stored until analysis at −20° C.
LPAs from plasma samples were extracted by using the procedure described by Scherer et al. (Clinical chemistry 2009, 55, 1218-22). 35 μL of heparinized plasma was mixed with 200 μL 40 mM disodium hydrogen phosphate buffer containing 30 mM citric acid (pH 4) and 1 μM 17:0 LPA (internal standard). Subsequently, 500 μL butanol was added and shaken vigorously for 10 min. Samples were centrifuged afterwards at 4000 rpm, 4° C., for 10 min. 500 μL of the organic upper phase was transferred to a fresh 96-deep-well plate and evaporated with a gentle nitrogen flow of 15 psi for 45 min. The resultant residual was dissolved in 100 μL ethanol prior to LC-MS analysis.
A Triple Quad 6500 (ABSciex, Toronto, Canada) was equipped with an Agilent 1290 LC system (Agilent, Santa Clara, CA) a CTC autosampler and an Atlantis 50×2.1-mm, 3-μm HILIC LC column (Waters, Elstree, UK). Eluent A contained 0.2% formic acid and 50 mM ammonium formate in water, whereas eluent B consisted of 0.2% formic acid in acetonitrile. […] At 1.8 min, solvent B was set back to 95% and stayed constant for 0.7 min for re-equilibration of the column. The following LPA species were monitored (DP: declustering potential and CE: collision energy): 16:0 LPA at 409.2/152.8, DP=−150, CE=−28; 18:0 LPA at 437.3/152.8, DP=−60, CE=−28; 18:1 LPA at 435.2/152.8, DP=−40, CE=−28; 18:2 LPA at 433.2/152.8, DP=−150, CE=−28; 20:4 LPA at 457.2/152.8, DP=−100, CE=−29 and 17:0 LPA at 423.5/152.8, DP=−100, CE=−36. LPA depletion in percent was calculated based on the baseline LPA levels before test compound application. The sum of LPA refers to the species 16:0; 18:0; 18:1; 18:2 and 20:4

CC(=O)N1CC2(C1)CN(c1ccc(CNc3ccc(OCc4ccc(C(F)(F)F)nc4)nn3)cc1)C2 [Example 1.1, 1-(6-(4-(((6-((6-(trifluoromethyl)pyridin-3-yl)methoxy)pyridazin-3-yl)amino)methyl)phenyl)-2,6-diazaspiro[3.3]heptan-2-yl)ethan-1-one]
IC50 [1]: 3.4 nM
LPA reduction at 8 h [2]: 96.5%

CC(=O)N1CC2(C1)CN(c1ccc(CNc3ccc(OCc4ccc(C(F)F)nc4)nn3)cc1)C2 [Example 1.2]
IC50 [1]: 2.9 nM
LPA reduction at 8 h [2]: 96.7%

CC(=O)N1CCN(c2ccc(CNc3ccc(OCc4ccc(C(F)F)nc4)nn3)cc2F)CC1 [Example 1.3]
IC50 [1]: 1.5 nM

CC(=O)N1CCN(c2ccc(CNc3ccc(OCc4ccc(C(F)F)nc4)nn3)c(F)c2)CC1 [Example 1.4]
IC50 [1]: 3.3 nM

CN1CC2(CC1=O)CN(c1ccc(CNc3ccc(OCc4ccc(C(F)F)nc4)nn3)cc1)C2 [Example 1.5]
IC50 [1]: 3.9 nM

CC(=O)N1CCC2(CC1)CN(c1ccc(CNc3ccc(OCc4ccc(C(F)F)nc4)nn3)cc1)C2 [Example 1.6]
IC50 [1]: 6.5 nM

CC(=O)N1CCN(c2ccc(CNc3ccc(OCc4ccc(C(F)F)nc4)nn3)cc2)CC1(C)C [Example 1.7]
IC50 [1]: 1.6 nM

CCc1nc2c(C)cc(N3CCN(CC(=O)N4CC(O)C4)CC3)cn2c1N(C)c1nc(-c2ccc(F)cc2)c(C#N)s1 [Example 2 in WO2014/139882, reference compound]
LPA reduction at 8 h [2]: 58.1%

CC(=O)N(C)C1CCN(c2ccc(CNc3ccc(OCc4ccc(C(F)(F)F)nc4)nn3)cc2)CC1 [Example 2.1, N-methyl-N-[1-(4-{[(6-{[6-(trifluoromethyl)pyridin-3-yl]methoxy}pyridazin-3-yl)amino]methyl}phenyl)piperidin-4-yl]acetamide]
IC50 [1]: 2.3 nM

CC(=O)N1CCN(c2ccc(CNc3ccc(OCc4ccc(C(F)(F)F)nc4)nn3)cc2)CC1 [Example 2.2]
IC50 [1]: 3 nM
LPA reduction at 8 h [2]: 94.1%

CC(=O)N1CCN(c2ccc(CNc3ccc(OCc4ccc(C(F)F)nc4)nn3)cn2)CC1 [Example 2.3]
IC50 [1]: 2.2 nM

CC(=O)N1CCN(c2ccc(CNc3ccc(OCc4ccc(C(F)F)nc4)nn3)nc2)CC1 [Example 2.4]
IC50 [1]: 1.9 nM

CC(=O)N1CCN(c2ccc(CNc3ccc(OCc4ccc(C(F)(F)F)nc4)nn3)cn2)CC1 [Example 2.5]
IC50 [1]: 2.5 nM
LPA reduction at 8 h [2]: 95.9%

CC(=O)N1CC2CC1CN2c1ccc(CNc2ccc(OCc3ccc(C(F)F)nc3)nn2)cc1 (centres unmarked) [Example 2.6]
IC50 [1]: 1.8 nM

CC(=O)N1CCN(c2ccc(CNc3ccc(OCc4ccc(C(F)F)nc4)nn3)c(C(F)(F)F)c2)CC1 [Example 2.7]
IC50 [1]: 1.9 nM

FC(F)(F)c1ccc(COc2ccc(NCc3ccc(N4CCN(C5COC5)CC4)cc3)nn2)cn1 [Example 2.8]
IC50 [1]: 2 nM

CC(=O)N1CC2(C1)CN(c1ccc(CNc3ccc(OCc4ccc(C(F)(F)F)nc4)nn3)cc1F)C2 [Example 2.9]
IC50 [1]: 3.7 nM

FC(F)c1ccc(COc2ccc(NCc3ccc(N4CCN(C5COC5)CC4)cc3)nn2)cn1 [Example 2.10]
IC50 [1]: 1.8 nM

CC(=O)N[C@H]1[C@@H]2CN(c3ccc(CNc4ccc(OCc5ccc(C(F)(F)F)nc5)nn4)cc3)C[C@@H]21 [Example 2.11]
IC50 [1]: 3.8 nM

CC(=O)N1CCN(c2ccc(CNc3ccc(OCc4cnc(C(F)F)c(F)c4)nn3)cc2)CC1 [Example 2.12]
IC50 [1]: 3.5 nM
LPA reduction at 8 h [2]: 94.6%

CC(=O)N1C[C@@H]2CN(c3ccc(CNc4ccc(OCc5ccc(C(F)(F)F)nc5)nn4)cc3)C[C@@H]2C1 [Example 2.13]
IC50 [1]: 4 nM

CC(=O)N1C[C@@H]2CN(c3ccc(CNc4ccc(OCc5ccc(C(F)F)nc5)nn4)cc3)C[C@@H]2C1 [Example 2.14]
IC50 [1]: 4.4 nM

CC(=O)N1CCN(c2ccc(CNc3ccc(OCc4ccc(C(F)(F)F)nc4)nn3)nc2)CC1 [Example 2.15]
IC50 [1]: 2.2 nM

CC(=O)N1CCC2(CC1)CN(c1ccc(CNc3ccc(OCc4ccc(C(F)F)nc4)nn3)nc1)C2 [Example 2.16]
IC50 [1]: 10.4 nM

CC(=O)N1CCC2(CC1)CN(c1ccc(CNc3ccc(OCc4ccc(C(F)(F)F)nc4)nn3)cn1)C2 [Example 2.17]
IC50 [1]: 5.2 nM

CC(=O)N1CCC2(CC1)CN(c1ccc(CNc3ccc(OCc4ccc(C(F)F)nc4)nn3)cn1)C2 [Example 2.18]
IC50 [1]: 9.2 nM

CC(=O)N1CC2CCC(C1)N2c1ccc(CNc2ccc(OCc3ccc(C(F)(F)F)nc3)nn2)cc1 [Example 2.19]
IC50 [1]: 2.4 nM

CC(=O)N1CC2CCC1CN2c1ccc(CNc2ccc(OCc3ccc(C(F)(F)F)nc3)nn2)cc1 (centres unmarked) [Example 2.20]
IC50 [1]: 2.9 nM

CC(=O)N1CC2(C1)CN(c1ccc(CNc3ccc(OCc4ccc(C(F)(F)F)nc4)nn3)c(F)c1)C2 [Example 2.21]
IC50 [1]: 2.4 nM

CC(=O)N1CCC2(CC1)CN(c1ccc(CNc3ccc(OCc4ccc(C(F)(F)F)nc4)nn3)cc1)C2 [Example 2.22]
IC50 [1]: 6.2 nM

CC(=O)N1CC2CC1CN2c1ccc(CNc2ccc(OCc3ccc(C(F)(F)F)nc3)nn2)cc1 (centres unmarked) [Example 2.23]
IC50 [1]: 3.9 nM

CC(=O)N1CCN(c2ccc(CNc3ccc(OCc4ccc(C(F)F)nc4)nn3)cc2)CC1 [Example 3, 1-[4-(4-{[(6-{[6-(Difluoromethyl)pyridin-3-yl]methoxy}pyridazin-3-yl)amino]methyl}-phenyl)piperazin-1-yl]ethan-1-one]
IC50 [1]: 2.9 nM
LPA reduction at 8 h [2]: 99.9%

CC(=O)N1CC[C@@H]2CN(c3ccc(CNc4ccc(OCc5ccc(C(F)(F)F)nc5)nn4)cc3)C[C@@H]2CC1 [Example 4, 1-[(3aR,8aS)-2-(4-{[(6-{[6-(trifluoromethyl)pyridin-3-yl]methoxy}pyridazin-3-yl)amino]methyl}phenyl)-decahydropyrrolo[3,4-d]azepin-6-yl]ethan-1-one]
IC50 [1]: 8.6 nM

CC(=O)N1C[C@@H]2[C@H](C1)[C@H]1CN(c3ccc(CNc4ccc(OCc5ccc(C(F)(F)F)nc5)nn4)cc3)C[C@@H]21 [Example 5, 1-((3aR,3bS,6aR,6bS)-5-(4-(((6-((6-(trifluoromethyl)pyridin-3-yl)methoxy)pyridazin-3-yl)amino)methyl)phenyl)octahydrocyclobuta[1,2-c:3,4-c′]dipyrrol-2(1H)-yl)ethan-1-one]
IC50 [1]: 7 nM

O=C(NC[C@@H]1[C@H]2CN(C(=O)OCc3cc(C(F)(F)F)cc(C(F)(F)F)c3)C[C@@H]12)c1ccc2[nH]nnc2c1 [reference compound]
LPA reduction at 8 h [2]: 40.7%
